# From PMC9112332, “Structure-Based Design of α-Substituted Mercaptoacetamides as Inhibitors of the Virulence Factor LasB from Pseudomonas aeruginosa” (ACS Infectious Diseases, 2022)
# Where two headings read alike, the source gives them in different places.
# Columns and labels:
# LasB = LasB (Pseudomonas aeruginosa, UniProt Q02RJ6); assay: LasB inhibition assay (FRET-based, in vitro)
# Protocol: LasB Inhibition Assay. The purification of LasB from P. aeruginosa P14 supernatant as well
# as the subsequent performance of the FRET-based in vitro inhibition assay was performed as
# described previously.1 All samples were run in duplicate for each condition, and experiments
# were performed independently at least twice.
# MMP-8 = MMP-8 (Homo sapiens, UniProt P22894); assay: Human off-target inhibition assay, MMP-8; format: biochemical
# MMP-14 = MMP-14 (Homo sapiens, UniProt P50281); assay: Human off-target inhibition assay, MMP-14; format: biochemical
# HDAC-3 = HDAC-3 (Homo sapiens, UniProt O15379); assay: Human off-target inhibition assay, HDAC-3; format: biochemical
# Protocol: (§1) Table 3 Activities of Four LasB Inhibitors against the Selected MMPs (% of inhibition at 100 μM) and Further Human Off-Targets ^a | column: 3; 12; 13; 23
# ColH-PD = ColH-PD (Hathewaya histolytica, UniProt Q46085); assay: biochemical; set-up: species or system C. histolyticum; conditions: for inhibition at 1 µM: read-out: % inh. of ColH-PD @1µM
# HDAC-8 = biological target: T1, HDAC-8 (Homo sapiens, UniProt Q9BY41); assay: Human off-target inhibition assay, HDAC-8; format: biochemical
# T1 sequence (Q9BY41 1-377): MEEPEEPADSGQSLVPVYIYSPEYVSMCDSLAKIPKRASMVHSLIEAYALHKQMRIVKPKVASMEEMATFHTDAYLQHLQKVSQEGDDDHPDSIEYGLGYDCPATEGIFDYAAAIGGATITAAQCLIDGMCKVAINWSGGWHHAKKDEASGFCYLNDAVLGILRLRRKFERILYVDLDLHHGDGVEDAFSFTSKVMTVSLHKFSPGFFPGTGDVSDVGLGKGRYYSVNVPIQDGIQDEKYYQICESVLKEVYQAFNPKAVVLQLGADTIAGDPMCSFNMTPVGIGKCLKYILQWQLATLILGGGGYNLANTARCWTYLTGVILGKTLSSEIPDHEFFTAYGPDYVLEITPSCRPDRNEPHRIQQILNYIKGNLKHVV
# Protocol: as §1
# MMP-2 = biological target: T2, MMP-2 (Homo sapiens, UniProt P08253); assay: Human off-target inhibition assay, MMP-2; format: biochemical
# T2 sequence (P08253 110-660): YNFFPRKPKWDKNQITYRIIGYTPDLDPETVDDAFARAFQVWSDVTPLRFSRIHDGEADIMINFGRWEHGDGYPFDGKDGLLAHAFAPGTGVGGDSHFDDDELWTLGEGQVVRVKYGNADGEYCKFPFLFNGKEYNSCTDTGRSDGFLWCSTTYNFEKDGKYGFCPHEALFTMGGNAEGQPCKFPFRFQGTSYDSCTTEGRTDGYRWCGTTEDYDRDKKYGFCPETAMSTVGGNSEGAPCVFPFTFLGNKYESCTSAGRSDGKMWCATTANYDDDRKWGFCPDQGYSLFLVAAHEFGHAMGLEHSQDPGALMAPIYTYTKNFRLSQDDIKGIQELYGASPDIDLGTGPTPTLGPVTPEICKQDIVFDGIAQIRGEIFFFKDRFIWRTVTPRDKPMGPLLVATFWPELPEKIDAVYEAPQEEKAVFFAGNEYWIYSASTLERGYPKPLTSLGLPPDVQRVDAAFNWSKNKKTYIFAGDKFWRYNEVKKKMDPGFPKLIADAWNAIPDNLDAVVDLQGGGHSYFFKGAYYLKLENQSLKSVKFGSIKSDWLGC
# MMP-3 = MMP-3 (Homo sapiens, UniProt P08254); assay: Human off-target inhibition assay, MMP-3; format: biochemical
# MMP-7 = biological target: T3, MMP-7 (Homo sapiens, UniProt P09237); assay: Human off-target inhibition assay, MMP-7; format: biochemical
# T3 sequence (P09237 95-267): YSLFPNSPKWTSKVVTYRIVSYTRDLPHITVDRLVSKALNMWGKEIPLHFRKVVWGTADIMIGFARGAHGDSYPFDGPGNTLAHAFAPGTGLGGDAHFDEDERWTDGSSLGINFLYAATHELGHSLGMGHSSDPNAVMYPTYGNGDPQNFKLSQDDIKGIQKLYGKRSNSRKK
# MMP-1 = biological target: T4, MMP-1 (Homo sapiens, UniProt P03956); assay: Human off-target inhibition assay, MMP-1; format: biochemical
# T4 sequence (P03956 100-469): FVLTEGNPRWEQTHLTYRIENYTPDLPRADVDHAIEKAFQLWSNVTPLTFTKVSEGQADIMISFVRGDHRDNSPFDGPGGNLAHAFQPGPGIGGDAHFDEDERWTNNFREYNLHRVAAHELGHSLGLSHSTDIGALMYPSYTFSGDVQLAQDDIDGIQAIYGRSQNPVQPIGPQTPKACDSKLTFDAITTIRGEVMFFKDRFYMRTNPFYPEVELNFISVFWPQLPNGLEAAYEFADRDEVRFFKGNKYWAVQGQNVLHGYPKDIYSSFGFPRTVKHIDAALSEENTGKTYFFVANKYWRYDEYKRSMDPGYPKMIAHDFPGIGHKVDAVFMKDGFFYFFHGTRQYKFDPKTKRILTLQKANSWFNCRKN
# [1] = tested on: A549 cells treated with ΔlasB PA14 supernatant; format: cell-based, human; conditions: 15% (v/v) ΔlasB PA14 supernatant, MTT
# [2] = tested on: A549 cells treated with wt PA14 supernatant; conditions: 15% (v/v) wt PA14 supernatant; for effect on viability of A549 cells treated with wt PA14 supernatant (in words): MTT
# [3] = tested on: NHDF cells treated with wt PA14 supernatant; format: cell-based, human; conditions: 15% (v/v) wt PA14 supernatant; for effect on viability of NHDF cells treated with wt PA14 supernatant (in words): MTT
# zebrafish embryos = assay: Zebrafish embryo toxicity (maximum tolerated concentration) assay; format: in vivo; conditions: for toxicity (larvae with toxicity signs): Table S2
# ADAM17 = ADAM17 (Homo sapiens, UniProt P78536); assay: Human off-target inhibition assay, ADAM17 (TACE); format: biochemical
# G. mellonella larvae = assay: In vivo Galleria mellonella virulence assay; conditions: compound with wt PA14 supernatant, after 6 days
# [4] = tested on: A549 cells treated with wt PA14 supernatant; assay: cells; conditions: Homo sapiens, A549, 24 h, read-out: increase in viability of A549 cells
# [5] = Cytotoxicity assay, HEK293; format: cell-based; conditions: HEK293 cells; human embryonic kidney cells
# [6] = Cytotoxicity assay, HepG2; format: cell-based; conditions: HepG2 cells; human hepatoma cell line
# Cytotoxicity assay, A549 = format: cell-based; conditions: A549 cells; adenocarcinomic human alveolar basal epithelial cells
# P. aeruginosa PA14 = assay: Antibacterial activity (MIC) assay; format: cell-based, Pseudomonas aeruginosa
# Chain of ColH-PD (Q46085 331-721 limits assumed): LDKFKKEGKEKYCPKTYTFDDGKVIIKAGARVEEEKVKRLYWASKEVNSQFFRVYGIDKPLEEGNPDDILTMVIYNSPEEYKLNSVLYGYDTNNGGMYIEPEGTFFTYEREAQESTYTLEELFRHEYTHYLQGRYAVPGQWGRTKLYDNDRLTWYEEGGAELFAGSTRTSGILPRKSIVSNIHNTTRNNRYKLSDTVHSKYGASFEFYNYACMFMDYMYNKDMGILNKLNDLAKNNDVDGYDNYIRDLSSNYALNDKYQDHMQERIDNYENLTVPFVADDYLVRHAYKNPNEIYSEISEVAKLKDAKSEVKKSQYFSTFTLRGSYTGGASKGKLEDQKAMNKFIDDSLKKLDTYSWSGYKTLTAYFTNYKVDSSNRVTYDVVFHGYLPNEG
# Chain of HDAC-3 (O15379 whole entry): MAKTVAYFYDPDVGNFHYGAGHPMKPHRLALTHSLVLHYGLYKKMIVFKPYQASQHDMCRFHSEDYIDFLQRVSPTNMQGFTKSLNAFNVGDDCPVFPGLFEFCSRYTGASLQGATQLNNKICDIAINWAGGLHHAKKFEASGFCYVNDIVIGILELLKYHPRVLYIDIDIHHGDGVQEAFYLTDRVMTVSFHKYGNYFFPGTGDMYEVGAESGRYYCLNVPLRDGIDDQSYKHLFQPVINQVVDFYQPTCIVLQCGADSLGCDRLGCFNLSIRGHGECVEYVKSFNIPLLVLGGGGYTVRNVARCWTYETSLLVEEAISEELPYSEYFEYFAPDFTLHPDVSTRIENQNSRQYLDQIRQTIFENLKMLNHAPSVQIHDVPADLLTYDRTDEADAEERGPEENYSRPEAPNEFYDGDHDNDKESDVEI
# Chain of HDAC-3 (Q9Y618 395-489 partner limits assumed): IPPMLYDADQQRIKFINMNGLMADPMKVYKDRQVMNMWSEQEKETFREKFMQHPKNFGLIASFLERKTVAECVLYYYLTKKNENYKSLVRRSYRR
# Chain of LasB (Q02RJ6 198-498): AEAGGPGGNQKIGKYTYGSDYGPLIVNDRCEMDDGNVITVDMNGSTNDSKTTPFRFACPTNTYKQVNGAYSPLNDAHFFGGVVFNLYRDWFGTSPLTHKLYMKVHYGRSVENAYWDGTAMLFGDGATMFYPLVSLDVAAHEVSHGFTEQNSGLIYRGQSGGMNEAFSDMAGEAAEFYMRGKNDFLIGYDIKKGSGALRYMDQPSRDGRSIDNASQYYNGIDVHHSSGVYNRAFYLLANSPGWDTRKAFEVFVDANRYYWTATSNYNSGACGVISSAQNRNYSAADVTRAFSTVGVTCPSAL
# Chain of MMP-3 (P08254 100-477): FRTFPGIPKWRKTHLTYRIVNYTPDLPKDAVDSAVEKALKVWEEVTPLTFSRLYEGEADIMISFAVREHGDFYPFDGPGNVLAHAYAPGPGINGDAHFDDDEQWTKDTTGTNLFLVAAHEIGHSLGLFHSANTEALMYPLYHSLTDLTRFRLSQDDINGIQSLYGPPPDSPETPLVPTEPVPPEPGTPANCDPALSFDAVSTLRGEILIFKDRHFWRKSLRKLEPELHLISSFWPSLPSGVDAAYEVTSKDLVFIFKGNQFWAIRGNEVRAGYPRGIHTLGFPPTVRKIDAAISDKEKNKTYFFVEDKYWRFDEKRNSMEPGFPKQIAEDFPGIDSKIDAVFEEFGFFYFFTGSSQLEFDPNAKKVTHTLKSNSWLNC
# Chain of MMP-8 (P22894 101-467): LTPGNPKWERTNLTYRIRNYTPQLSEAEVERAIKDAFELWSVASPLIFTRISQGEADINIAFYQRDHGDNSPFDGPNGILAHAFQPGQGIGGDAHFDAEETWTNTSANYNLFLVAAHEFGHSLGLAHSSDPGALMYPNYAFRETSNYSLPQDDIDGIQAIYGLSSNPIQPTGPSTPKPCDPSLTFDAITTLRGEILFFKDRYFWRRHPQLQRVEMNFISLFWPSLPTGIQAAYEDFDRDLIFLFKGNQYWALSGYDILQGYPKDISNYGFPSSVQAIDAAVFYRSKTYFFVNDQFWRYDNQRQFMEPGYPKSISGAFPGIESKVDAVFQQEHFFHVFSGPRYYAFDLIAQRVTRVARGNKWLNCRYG
# Chain of ADAM17 (P78536 215-824): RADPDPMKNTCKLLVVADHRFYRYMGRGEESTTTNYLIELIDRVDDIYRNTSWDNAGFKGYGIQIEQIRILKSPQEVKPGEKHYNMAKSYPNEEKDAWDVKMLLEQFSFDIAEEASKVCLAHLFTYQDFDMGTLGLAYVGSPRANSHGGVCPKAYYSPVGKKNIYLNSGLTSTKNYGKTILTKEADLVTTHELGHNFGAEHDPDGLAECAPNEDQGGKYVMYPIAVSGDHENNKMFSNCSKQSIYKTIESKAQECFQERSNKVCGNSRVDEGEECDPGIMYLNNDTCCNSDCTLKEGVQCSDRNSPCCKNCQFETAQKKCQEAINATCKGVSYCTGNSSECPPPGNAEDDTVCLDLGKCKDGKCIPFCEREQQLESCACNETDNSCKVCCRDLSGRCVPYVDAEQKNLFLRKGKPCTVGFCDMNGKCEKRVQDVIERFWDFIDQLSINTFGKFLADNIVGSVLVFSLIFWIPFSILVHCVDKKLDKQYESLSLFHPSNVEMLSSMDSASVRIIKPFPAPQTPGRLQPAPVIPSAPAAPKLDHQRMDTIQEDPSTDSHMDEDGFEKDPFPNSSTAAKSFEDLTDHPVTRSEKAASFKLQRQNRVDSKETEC
structure (smiles),measurement,setting,value
O=C(Nc1nc2ccccc2[nH]1)C(S)Cc1ccccc1 (centres unmarked) [Compound 26],inhibitory activity against LasB (in words),LasB; compared to compound 23,dramatic decrease in the inhibitory activity
Cc1ccc(NC(=O)C(S)Cc2ccccc2)cc1 (centres unmarked) [Compound 3],inhibition at 100 µM,MMP-8,< 10%
same,inhibition at 100 µM,MMP-14,< 10%
same,IC50,HDAC-3,> 100 µM
same,Ki,ColH-PD,50 ± 10 nM
same,IC50,HDAC-8,> 100 µM
same,inhibition at 100 µM,MMP-2,< 10%
same,inhibition at 100 µM,MMP-3,< 10%
same,boost in potency compared to compound 4,LasB; LasB IC50 ratio vs compound 4,12 fold
same,ligand efficiency (LE),LasB; calculated from LasB activity,0.43
same,lipophilic ligand efficiency (LLE),LasB; calculated from LasB activity,2.37
same,inhibition at 100 µM,MMP-7,< 10%
same,inhibition at 100 µM,MMP-1,< 10%
O=C(Nc1cccnc1)C(S)Cc1ccccc1 (centres unmarked) [Compound 20],IC50,LasB,1200 ± 40 nM
O=C(Nc1ccccc1)C(S)Cc1ccc(O)c([N+](=O)[O-])c1 (centres unmarked) [Compound 16],inhibition at 1 µM,ColH-PD,74 ± 5%
same,IC50,LasB,2500 ± 200 nM
COC(=O)c1ccsc1NC(=O)C(S)Cc1ccccc1 (centres unmarked) [Compound 19],IC50,LasB,8000 ± 1100 nM
O=C(Nc1ccccc1)C(S)Cc1ccccc1 (centres unmarked) [Compound 5],Ki,ColH-PD,400 ± 40 nM
same,IC50,"LasB; read-out: IC50 against LasB, mean and SD of at least two independent experiments",1200 ± 100 nM
"COc1ccc(NC(=O)C(S)Cc2ccccc2)cc1 (centres unmarked) [Compound 12, 2-Mercapto-N-(4-methoxyphenyl)-3-phenylpropanamide]",inhibition at 100 µM,MMP-8,12 ± 2%
same,effect on A549 cells treated with ΔlasB PA14 supernatant (in words),[1],no effect
same,effect on viability of A549 cells treated with wt PA14 supernatant (in words),[2],Dose-dependent effect
same,inhibition at 100 µM,MMP-14,< 10%
same,IC50,HDAC-3,> 100 µM
same,Ki,ColH-PD,40 ± 10 nM
same,effect on viability of NHDF cells treated with wt PA14 supernatant (in words),[3],Concentrations-dependent effects
same,Survival rate %,zebrafish embryos; 2 µM,100%
same,toxicity (larvae with toxicity signs),zebrafish embryos; 2 µM,No toxicity signs were observed
same,Survival rate %,zebrafish embryos; 30 µM,0%
same,embryo observation,"zebrafish embryos; 30 µM, 2 dpf",imp. dev.
same,embryo observation,"zebrafish embryos; 30 µM, 3 dpf",all dead
same,toxicity (larvae with toxicity signs),zebrafish embryos; 30 µM,100%
same,Survival rate %,zebrafish embryos; 50 µM,0%
same,embryo observation,"zebrafish embryos; 50 µM, 3 dpf",all dead
same,toxicity (larvae with toxicity signs),zebrafish embryos; 50 µM,100%
same,Survival rate %,zebrafish embryos; 100 µM,0%
same,embryo observation,"zebrafish embryos; 100 µM, 2 dpf",all dead
same,toxicity (larvae with toxicity signs),zebrafish embryos; 100 µM,100%
same,maximum tolerated concentration (MTC),"zebrafish embryos; zebrafish embryos, until 120 hpf",≤ 2 µM
same,IC50,ADAM17,4.1 ± 0.1 µM
same,IC50,HDAC-8,> 100 µM
same,inhibition at 100 µM,MMP-2,< 10%
same,inhibition at 100 µM,MMP-3,< 10%
same,survival of larvae,G. mellonella larvae,70 ± 5%
same,IC50,LasB,700 ± 30 nM
same,inhibition at 100 µM,MMP-7,< 10%
same,inhibition at 100 µM,MMP-1,< 10%
O=C(Nc1ccc([N+](=O)[O-])cc1)C(S)Cc1ccccc1 (centres unmarked) [Compound 11],inhibition at 1 µM,ColH-PD,88 ± 2%
same,IC50,LasB,1000 ± 100 nM
COc1ccc2nc(NC(=O)C(S)Cc3ccccc3)sc2c1 (centres unmarked) [Compound 24],effect on A549 cells treated with ΔlasB PA14 supernatant (in words),[1],no effect
same,effect on viability of A549 cells treated with wt PA14 supernatant (in words),[2],Dose-dependent effect
same,Ki,ColH-PD,28000 ± 1000 nM
same,viability at 50 µM,[4],80 ± 15%
same,IC50,LasB,1000 ± 100 nM
Cc1ccc(CC(S)C(=O)Nc2ccccc2)cc1 (centres unmarked) [Compound 14],inhibition at 1 µM,ColH-PD,69 ± 3%
same,IC50,LasB,2800 ± 300 nM
O=C(Nc1ccccn1)C(S)Cc1ccccc1 (centres unmarked) [Compound 21],IC50,LasB,3100 ± 200 nM
O=C(Nc1nc2ccc(Cl)cc2s1)C(S)Cc1ccccc1 (centres unmarked) [Compound 25],IC50,LasB,2400 ± 200 nM
O=C(Nc1ccccc1)C(S)Cc1ccc(Cl)cc1 (centres unmarked) [Compound 17],IC50,LasB,1100 ± 100 nM
O=C(Nc1nccs1)C(S)Cc1ccccc1 (centres unmarked) [Compound 18],inhibition at 1 µM,ColH-PD,34 ± 3%
same,IC50,LasB,1600 ± 100 nM
O=C(Nc1ccncc1)C(S)Cc1ccccc1 (centres unmarked) [Compound 22],IC50,LasB,4900 ± 500 nM
"CC(C)C[C@H](NP(=O)(O)O[C@@H]1O[C@@H](C)[C@H](O)[C@@H](O)[C@H]1O)C(=O)N[C@@H](Cc1c[nH]c2ccccc12)C(=O)O [Pam, phosphoramidon, reference compound]",cell integrity and morphology of A549 cells (bright-field imaging),[2],cell integrity and morphology were maintained
same,cell integrity and morphology of NHDF cells (bright-field imaging),[3],cell integrity and morphology were maintained
O=C(Nc1ccccc1)C(S)Cc1ccc(O)cc1 (centres unmarked) [Compound 15],inhibition at 1 µM,ColH-PD,63 ± 2%
same,IC50,LasB,7400 ± 600 nM
same,decrease in activity compared to compound 3,LasB; LasB IC50 ratio vs compound 3,15 fold
O=C(Nc1ccc(O)cc1)C(S)Cc1ccccc1 (centres unmarked) [Compound 13],inhibition at 100 µM,MMP-8,19 ± 4%
same,effect on A549 cells treated with ΔlasB PA14 supernatant (in words),[1],no effect
same,effect on viability of A549 cells treated with wt PA14 supernatant (in words),[2],Dose-dependent effect
same,inhibition at 100 µM,MMP-14,< 10%
same,IC50,HDAC-3,> 250 µM
same,Ki,ColH-PD,100 ± 20 nM
same,IC50,[5],> 100 µM
same,effect on viability of NHDF cells treated with wt PA14 supernatant (in words),[3],Concentrations-dependent effects
same,IC50,[6],> 100 µM
same,IC50,ADAM17,2.3 ± 1.4 µM
same,IC50,HDAC-8,> 250 µM
same,inhibition at 100 µM,MMP-2,< 10%
same,inhibition at 100 µM,MMP-3,< 10%
same,IC50,"Cytotoxicity assay, A549",> 100 µM
same,IC50,LasB,600 ± 40 nM
same,MIC,"P. aeruginosa PA14; Pseudomonas aeruginosa, P. aeruginosa PA14",> 100 µM
same,reduction of bacterial growth,P. aeruginosa PA14; at 100 μM,less than 10%
same,inhibition at 100 µM,MMP-7,< 10%
same,inhibition at 100 µM,MMP-1,< 10%
